Measurements from US9416127B2, “Triazole carboxamides and uses thereof” (Hoffmann-La Roche Inc., priority 2012, dated 2016).
Counter-ions that a name gives are not always drawn.

How the values were obtained:
[1] = molecular target: rat TAAR1 (Rattus norvegicus (Rat), UniProt Q923Y9); assay: Radioligand binding assay on rat TAAR1; settings: rat TAAR1, HEK-293 membranes; second value of mouse/rat cell
Experimental: (§1) Construction of TAAR Expression Plasmids and Stably Transfected Cell Lines
(§2) For the construction of expression plasmids the coding sequences of human, rat and mouse TAAR 1 were amplified from genomic DNA essentially as described by Lindemann et al.. The Expand High Fidelity PCR System (Roche Diagnostics) was used with 1.5 mM Mg^2+ and purified PCR products were cloned into pCR2.1-TOPO cloning vector (Invitrogen) following the instructions of the manufacturer. PCR products were subcloned into the pIRESneo2 vector (BD Clontech, Palo Alto, Calif.), and expression vectors were sequence verified before introduction in cell lines.
(§3) HEK293 cells (ATCC # CRL-1573) were cultured essentially as described by Lindemann et al. (2005). For the generation of stably transfected cell lines HEK293 cells were transfected with the pIRESneo2 expression plasmids containing the TAAR coding sequences (described above) with Lipofectamine 2000 (Invitrogen) according to the instructions of the manufacturer, and 24 hrs post transfection the culture medium was supplemented with 1 mg/ml G418 (Sigma, Buchs, Switzerland). After a culture period of about 10 d clones were isolated, expanded and tested for responsiveness to trace amines (all compounds purchased from Sigma) with the cAMP Biotrak Enzyme immunoassay (EIA) System (Amersham) following the non-acetylation EIA procedure provided by the manufacturer.
Radioligand Binding Assay on Rat TAAR1
(§4) Membrane Preparation and Radioligand Binding.
(§5) HEK-293 cells stably expressing rat TAAR1 were maintained at 37° C. and 5% CO2 in DMEM high glucose medium, containing fetal calf serum (10%, heat inactivated for 30 min at 56° C.), penicillin/streptomycin (1%), and 375 μg/ml geneticin (Gibco). Cells were released from culture flasks using trypsin/EDTA, harvested, washed twice with ice-cold PBS (without Ca^2+ and Mg^2+), pelleted at 1'000 rpm for 5 min at 4° C., frozen and stored at −80° C. Frozen pellets were suspended in 20 ml HEPES-NaOH (20 mM, pH 7.4) containing 10 mM EDTA and homogenized with a Polytron (PT 6000, Kinematica) at 14'000 rpm for 20 s. The homogenate was centrifuged at 48'000×g for 30 min at 4° C. Subsequently, the supernatant was removed and discarded, and the pellet resuspended in 20 ml HEPES-NaOH (20 mM, pH 7.4) containing 0.1 mM EDTA using the Polytron (20 s at 14'000 rpm). This procedure was repeated and the final pellet resuspended in HEPES-NaOH containing 0.1 mM EDTA and homogenized using the Polytron. Typically, aliquots of 2 ml membrane portions were stored at −80° C. With each new membrane batch the dissociation constant (Kd) was determined via a saturation curve. […] Nonspecific binding was defined as the amount of ^3[H]—(S)-4-[(ethyl-phenyl-amino)-methyl]-4,5-dihydro-oxazol-2-ylamine bound in the presence of 10 μM unlabeled ligand. All compounds were tested at a broad range of concentrations (10 μM to 10 μM) in duplicates. […] The 96 deep well plates were incubated for 1 hr at 4° C. Incubations were terminated by rapid filtration through Unifilter-96 plates (Packard Instrument Company) and glass filters GF/C (Perkin Elmer) presoaked for 1 hr in polyethylenimine (0.3%) and washed 3 times with 1 ml of cold binding buffer. After addition of 45 μl of Microscint 40 (PerkinElmer) the Unifilter-96 plate was sealed and after 1 hr the ratioactivity counted using a TopCount Microplate Scintillation Counter (Packard Instrument Company).

[2] = molecular target: mouse TAAR1 (Mus musculus (Mouse), UniProt Q923Y8); assay: Radioligand binding assay on mouse TAAR1; settings: mouse TAAR1, HEK-293 membranes; first value of mouse/rat cell
Experimental: as §1, §2, §3
Radioligand Binding Assay on Mouse TAAR1
as §4
as §5, with “expressing mouse” for “expressing rat”, “(10 pM” for “(10 μM”

Sequence of rat TAAR1 (Q923Y9 whole entry): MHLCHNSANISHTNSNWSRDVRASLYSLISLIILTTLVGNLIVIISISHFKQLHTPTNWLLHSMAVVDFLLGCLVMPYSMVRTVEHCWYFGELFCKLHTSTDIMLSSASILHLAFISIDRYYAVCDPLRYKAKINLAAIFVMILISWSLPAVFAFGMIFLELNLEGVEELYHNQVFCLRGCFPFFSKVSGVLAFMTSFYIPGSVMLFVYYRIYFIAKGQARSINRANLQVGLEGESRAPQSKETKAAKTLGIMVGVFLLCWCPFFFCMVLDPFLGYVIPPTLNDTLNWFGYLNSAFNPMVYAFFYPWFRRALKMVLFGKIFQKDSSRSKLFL
Sequence of mouse TAAR1 (Q923Y8 whole entry): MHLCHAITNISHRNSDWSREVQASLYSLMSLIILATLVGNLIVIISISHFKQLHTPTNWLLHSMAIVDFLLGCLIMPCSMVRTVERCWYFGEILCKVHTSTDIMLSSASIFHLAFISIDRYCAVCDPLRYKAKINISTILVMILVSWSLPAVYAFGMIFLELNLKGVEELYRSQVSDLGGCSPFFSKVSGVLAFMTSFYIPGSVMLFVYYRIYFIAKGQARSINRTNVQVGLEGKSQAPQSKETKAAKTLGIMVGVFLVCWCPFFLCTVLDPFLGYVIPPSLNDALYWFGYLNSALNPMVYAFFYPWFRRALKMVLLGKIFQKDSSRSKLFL

Compound	Ki [1] [µM]	Ki [2] [µM]
O=C(Nc1ccc(C2CCNC2)cc1)c1cn(-c2ccc(OC(F)F)cc2)nn1 (racemic) [Example 33, (RS)-1-(4-(Difluoromethoxy)phenyl)-N-(4-(pyrrolidin-3-yl)phenyl)-1H-1,2,3-triazole-4-carboxamide]	0.0189	0.0049
O=C(Nc1ccc(C2CCNC2)cc1)c1cnn(-c2ccccc2)n1 (racemic) [Example 34, (RS)-2-Phenyl-N-(4-(pyrrolidin-3-yl)phenyl)-2H-1,2,3-triazole-4-carboxamide]	0.001	0.0032
O=C(Nc1ccc(C2CCCNC2)cc1)c1cnn(-c2ccccc2)n1 (racemic) [Example 35, (RS)-2-Phenyl-N-(4-(piperidin-3-yl)phenyl)-2H-1,2,3-triazole-4-carboxamide]	0.0017	–
O=C(Nc1ccc([C@H]2CNCCO2)cc1)c1cnn(-c2ccccc2)n1 [Example 1, (S)—N-(4-(Morpholin-2-yl)phenyl)-2-phenyl-2H-1,2,3-triazole-4-carboxamide hydrochloride]	0.0013	0.0012
Cc1nn(-c2ccccc2)nc1C(=O)Nc1ccc([C@H]2CNCCO2)cc1 [Example 2, (S)-5-Methyl-N-(4-(morpholin-2-yl)phenyl)-2-phenyl-2H-1,2,3-triazole-4-carboxamide hydrochloride]	0.0008	0.0015
O=C(Nc1ccc([C@H]2CNCCO2)cc1)c1cnn(-c2ccc(Cl)cc2)n1 [Example 6, (S)-2-(4-Chlorophenyl)-N-(4-(morpholin-2-yl)phenyl)-2H-1,2,3-triazole-4-carboxamide hydrochloride]	0.0002	0.0004
Cc1nn(-c2ccccc2)nc1C(=O)Nc1ccc([C@@H]2CNCCO2)cc1 [Example 7, (R)-5-Methyl-N-(4-(morpholin-2-yl)phenyl)-2-phenyl-2H-1,2,3-triazole-4-carboxamide hydrochloride]	0.0002	0.0027
O=C(Nc1ccc([C@@H]2CNCCO2)cc1)c1cnn(-c2ccccc2)n1 [Example 8, (R)—N-(4-(Morpholin-2-yl)phenyl)-2-phenyl-2H-1,2,3-triazole-4-carboxamide hydrochloride]	0.0008	0.0014
O=C(Nc1ccc([C@H]2CNCCO2)cc1)c1cnn(-c2ccc(F)cc2)n1 [Example 9, (S)-2-(4-Fluorophenyl)-N-(4-(morpholin-2-yl)phenyl)-2H-1,2,3-triazole-4-carboxamide hydrochloride]	0.0006	0.0004
O=C(Nc1ccc([C@H]2CNCCO2)cc1)c1cnn(-c2ccc(C(F)(F)F)cc2)n1 [Example 10, (S)—N-(4-(Morpholin-2-yl)phenyl)-2-(4-(trifluoromethyl)phenyl)-2H-1,2,3-triazole-4-carboxamide hydrochloride]	0.0002	0.0004
O=C(Nc1ccc([C@H]2CNCCO2)cc1)c1cnn(-c2cccc(F)c2)n1 [Example 11, (S)-2-(3-Fluorophenyl)-N-(4-(morpholin-2-yl)phenyl)-2H-1,2,3-triazole-4-carboxamide hydrochloride]	0.0004	0.0003
O=C(Nc1ccc([C@H]2CNCCO2)cc1)c1cnn(-c2cccc(Cl)c2)n1 [Example 12, (S)-2-(3-Chlorophenyl)-N-(4-(morpholin-2-yl)phenyl)-2H-1,2,3-triazole-4-carboxamide hydrochloride]	0.0002	0.0002
O=C(Nc1ccc([C@H]2CNCCO2)cc1)c1cnn(-c2cccc(C(F)(F)F)c2)n1 [Example 13, (S)—N-(4-(Morpholin-2-yl)phenyl)-2-(3-(trifluoromethyl)phenyl)-2H-1,2,3-triazole-4-carboxamide hydrochloride]	0.0006	0.0003
O=C(Nc1ccc([C@H]2CNCCO2)cc1)c1cnn(-c2ccc(OC(F)(F)F)cc2)n1 [Example 15, (S)—N-(4-(Morpholin-2-yl)phenyl)-2-(4-(trifluoromethoxy)phenyl)-2H-1,2,3-triazole-4-carboxamide hydrochloride]	0.0001	0.0002
O=C(Nc1ccc([C@H]2CNCCO2)cc1)c1cnn(-c2ccc(OC(F)F)cc2)n1 [Example 16, (S)-2-(4-(Difluoromethoxy)phenyl)-N-(4-(morpholin-2-yl)phenyl)-2H-1,2,3-triazole-4-carboxamide hydrochloride]	0.0002	0.0003
Cc1ccc(-n2cc(C(=O)Nc3ccc([C@H]4CNCCO4)cc3)nn2)cc1 [Example 17, (S)—N-(4-(Morpholin-2-yl)phenyl)-1-p-tolyl-1H-1,2,3-triazole-4-carboxamide hydrochloride]	0.0174	0.0013
Cc1ccc(-n2ncc(C(=O)Nc3ccc([C@H]4CNCCO4)cc3)n2)cc1 [Example 18, (S)—N-(4-(Morpholin-2-yl)phenyl)-2-p-tolyl-2H-1,2,3-triazole-4-carboxamide hydrochloride]	0.0016	0.0007
COc1ccc(-n2cc(C(=O)Nc3ccc([C@H]4CNCCO4)cc3)nn2)cc1 [Example 19, (S)-1-(4-Methoxyphenyl)-N-(4-(morpholin-2-yl)phenyl)-1H-1,2,3-triazole-4-carboxamide hydrochloride]	0.0388	0.0016
COc1ccc(-n2ncc(C(=O)Nc3ccc([C@H]4CNCCO4)cc3)n2)cc1 [Example 20, (S)-2-(4-Methoxyphenyl)-N-(4-(morpholin-2-yl)phenyl)-2H-1,2,3-triazole-4-carboxamide hydrochloride]	0.0019	0.0014
CCOc1ccc(-n2cc(C(=O)Nc3ccc([C@H]4CNCCO4)cc3)nn2)cc1 [Example 21, (S)-1-(4-Ethoxyphenyl)-N-(4-(morpholin-2-yl)phenyl)-1H-1,2,3-triazole-4-carboxamide hydrochloride]	0.0293	0.0018
CCOc1ccc(-n2ncc(C(=O)Nc3ccc([C@H]4CNCCO4)cc3)n2)cc1 [Example 22, (S)-2-(4-Ethoxyphenyl)-N-(4-(morpholin-2-yl)phenyl)-2H-1,2,3-triazole-4-carboxamide hydrochloride]	0.001	0.0008
Cc1cccc(-n2ncc(C(=O)Nc3ccc([C@H]4CNCCO4)cc3)n2)c1 [Example 23, (S)—N-(4-(Morpholin-2-yl)phenyl)-2-m-tolyl-2H-1,2,3-triazole-4-carboxamide hydrochloride]	0.0005	0.0011
